# Results reported in patent US20060069132A1, “Azolecarboxamide herbicides” (priority 2004, published 2006).
# Legend:
# large crabgrass = assay: Test B pre-/postemergence herbicide test; type: in vivo, Digitaria sanguinalis; details: for Plant response rating (0 to 100 scale), Crabgrass, Large: 0 is no effect, preemergence
# Summary of the method: (§1)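 Herbicidal effect was judged by eye on a 0–100 scale after plants stood 13 to 15 days in the greenhouse following pre- or postemergence treatment with surfactant-containing formulations.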
# rice = assay: Test B flooded paddy test; type: in vivo, Oryza sativa; details: 1000 g ai/ha, scale 0 to 100 (0 no effect, 100 complete control)
# Summary of the method: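 Treated at 2-leaf (paddy) or 1–4-leaf, 2–18 cm (postemergence); greenhouse 13–15 d; visual score vs control, 0 none to 100 complete control; dash = not tested.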
# [1] = test system: small flower umbrella sedge; assay: Test B flooded paddy test; type: in vivo, Cyperus difformis; details: 1000 g ai/ha, scale 0 to 100 (0 no effect, 100 complete control)
# Summary of the method: (§2)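 Scale 0–100: zero equals no visible effect, 100 complete control, judged by eye relative to controls. Timing: 13 to 15 days in greenhouse post-treatment. Growth stage at spraying: two leaves (paddy) or one to four leaves, 2–18 cm (postemergence).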
# ducksalad = assay: Test B flooded paddy test; type: in vivo, Heteranthera limosa; details: 1000 g ai/ha, scale 0 to 100 (0 no effect, 100 complete control)
# Summary of the method: as §2
# cocklebur = assay: Test B pre-/postemergence herbicide test; type: in vivo, Xanthium strumarium; details: for Plant response rating (0 to 100 scale), Cocklebur: 0 is no effect, preemergence
# Summary of the method: (§3)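 Formulation: non-phytotoxic solvent mix with surfactant. Timing: preemergence on seed and postemergence on 2–18 cm plants, applied concurrently. Readout after 13–15 d greenhouse: visual 0–100 control rating against controls.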
# blackgrass = assay: Test B postemergence herbicide test; type: in vivo, Alopecurus myosuroides
# Summary of the method: as §2
# Surinam grass = assay: Test B pre-/postemergence herbicide test; type: in vivo, Urochloa decumbens; details: 125 g ai/ha; for Plant response rating (0 to 100 scale), Surinam Grass: 0 is no effect, 100 is complete control, preemergence
# Summary of the method: as §1
# corn = assay: Test B pre-/postemergence herbicide test; type: in vivo, Zea mays; details: for Plant response rating (0 to 100 scale), Corn: 0 is no effect, preemergence
# Summary of the method: as §1
# lambsquarters = assay: Test B pre-/postemergence herbicide test; type: in vivo, Chenopodium album; details: 125 g ai/ha
# Summary of the method: as §1
# barnyardgrass [2] = assay: Test B flooded paddy test; type: in vivo, Echinochloa crus-galli; details: 1000 g ai/ha, scale 0 to 100 (0 no effect, 100 complete control)
# Summary of the method: as §2
# wheat = assay: Test B postemergence herbicide test; type: in vivo, Triticum aestivum; design: key to Wheat plant response rating: 0 = no effect, 100 = complete control
# Summary of the method: (§4)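 Greenhouse test; postemergence application to plants at 1–4 leaves (2–18 cm); paddy species at 2 leaves; evaluated visually vs controls at 13–15 days; scale 0–100 (100 = complete control).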
# velvetleaf = assay: Test B pre-/postemergence herbicide test; type: in vivo, Abutilon theophrasti; details: 125 g ai/ha; for Plant response rating (0 to 100 scale), Velvetleaf: 0 is no effect, 100 is complete control, preemergence
# Summary of the method: as §1
# wild oat = assay: Test B postemergence herbicide test; type: in vivo, Avena fatua; details: 125 g ai/ha, visual rating, scale 0 (no effect) to 100 (complete control)
# Summary of the method: as §4
# giant foxtail = assay: Test B pre-/postemergence herbicide test; type: in vivo, Setaria faberi; details: for Plant response rating (0 to 100 scale), Foxtail, Giant: 0 is no effect, preemergence
# Summary of the method: as §1
# pigweed = assay: Test B pre-/postemergence herbicide test; type: in vivo, Amaranthus retroflexus; details: 125 g ai/ha; for Plant response rating (0 to 100 scale), Pigweed: 0 is no effect, 100 is complete control, preemergence
# Summary of the method: as §1
# barnyardgrass [3] = assay: Test B pre-/postemergence herbicide test; type: in vivo, Echinochloa crus-galli; details: for Plant response rating (0 to 100 scale), Barnyardgrass: 0 is no effect, preemergence
# Summary of the method: as §3
# morningglory = assay: Test B pre-/postemergence herbicide test; type: in vivo, Ipomoea coccinea; details: 125 g ai/ha; for Plant response rating (0 to 100 scale), Morningglory: 0 is no effect, 100 is complete control, preemergence
# Summary of the method: as §3
# [4] = 125 g ai/ha, 100 is complete control
# [5] = 125 g ai/ha, visual rating, scale 0 (no effect) to 100 (complete control), postemergence
# [6] = postemergence, 500 g ai/ha, scale 0 to 100, 0 is no effect, 100 is complete control
# [7] = visual rating, scale 0 (no effect) to 100 (complete control), postemergence
smiles,measurement,setting,value
"CCNC(=O)c1cccc(NC(=O)c2nn(C(C)(C)C)nc2CC)c1 [Compound 365, 2-(1,1-dimethylethyl)-5-ethyl-N-[3-[(ethylamino)carbonyl]phenyl]-2H-1,2,3-triazole-4-carboxamide]","Plant response rating (0 to 100 scale), Crabgrass, Large",large crabgrass; [4],100
same,pest or weed control at 125 g/ha,"large crabgrass; Digitaria sanguinalis, post-emergence, 125 g ai/ha, visual rating, scale 0 (no effect) to 100 (complete control), read-out: Crabgrass, Large plant response rating",0%
same,pest or weed control at 500 g/ha,"large crabgrass; Digitaria sanguinalis, post-emergence, postemergence, 500 g ai/ha, scale 0 to 100, 0 is no effect, 100 is complete control, read-out: Crabgrass, Large plant response rating",80%
same,plant injury at 1000 g/ha,"rice; Oryza sativa, 336 h, read-out: Rice plant response rating",90%
same,pest or weed control at 1000 g/ha,"[1]; Cyperus difformis, 336 h, read-out: Sedge, Umbrella plant response rating",90%
same,pest or weed control at 1000 g/ha,"ducksalad; Heteranthera limosa, 336 h, read-out: Ducksalad plant response rating",90%
same,"Plant response rating (0 to 100 scale), Cocklebur",cocklebur; [4],10
same,pest or weed control at 125 g/ha,"cocklebur; Xanthium strumarium, post-emergence, 125 g ai/ha, visual rating, scale 0 (no effect) to 100 (complete control), read-out: Cocklebur plant response rating",20%
same,pest or weed control at 500 g/ha,"cocklebur; Xanthium strumarium, post-emergence, postemergence, 500 g ai/ha, scale 0 to 100, 0 is no effect, 100 is complete control, read-out: Cocklebur plant response rating",60%
same,pest or weed control at 125 g/ha,"blackgrass; Alopecurus myosuroides, post-emergence, 336 h, 125 g ai/ha, visual rating, scale 0 (no effect) to 100 (complete control), read-out: Blackgrass plant response rating",40%
same,pest or weed control at 500 g/ha,"blackgrass; Alopecurus myosuroides, post-emergence, 336 h, postemergence, 500 g ai/ha, scale 0 to 100, 0 is no effect, 100 is complete control, read-out: Blackgrass plant response rating",90%
same,"Plant response rating (0 to 100 scale), Surinam Grass",Surinam grass,70
same,pest or weed control at 125 g/ha,"Surinam grass; Urochloa decumbens, post-emergence, visual rating, scale 0 (no effect) to 100 (complete control), read-out: Surinam Grass plant response rating",10%
same,"Plant response rating (0 to 100 scale), Corn",corn; [4],90
same,plant injury at 125 g/ha,"corn; Zea mays, post-emergence, 125 g ai/ha, visual rating, scale 0 (no effect) to 100 (complete control), read-out: Corn plant response rating",0%
same,plant injury at 500 g/ha,"corn; Zea mays, post-emergence, postemergence, 500 g ai/ha, scale 0 to 100, 0 is no effect, 100 is complete control, read-out: Corn plant response rating",20%
same,"Plant response rating (0 to 100 scale), Lambsquarters","lambsquarters; 0 is no effect, 100 is complete control, preemergence",100
same,pest or weed control at 125 g/ha,"lambsquarters; Chenopodium album, post-emergence, 336 h, visual rating, scale 0 (no effect) to 100 (complete control), read-out: Lambsquarters plant response rating",90%
same,pest or weed control at 1000 g/ha,"barnyardgrass [2]; Echinochloa crus-galli, 336 h, read-out: Barnyardgrass plant response rating",90%
same,plant injury at 125 g/ha,"wheat; Triticum aestivum, post-emergence, 336 h, 125 g ai/ha, visual rating, scale 0 (no effect) to 100 (complete control), read-out: Wheat plant response rating",20%
same,"Plant response rating (0 to 100 scale), Velvetleaf",velvetleaf,50
same,pest or weed control at 125 g/ha,"velvetleaf; Abutilon theophrasti, post-emergence, 336 h, visual rating, scale 0 (no effect) to 100 (complete control), read-out: Velvetleaf plant response rating",10%
same,pest or weed control at 125 g/ha,"wild oat; Avena fatua, post-emergence, 336 h, read-out: Oat, Wild plant response rating",30%
same,"Plant response rating (0 to 100 scale), Foxtail, Giant",giant foxtail; [4],100
same,pest or weed control at 125 g/ha,"giant foxtail; Setaria faberi, post-emergence, 336 h, 125 g ai/ha, visual rating, scale 0 (no effect) to 100 (complete control), read-out: Foxtail, Giant plant response rating",20%
same,pest or weed control at 500 g/ha,"giant foxtail; Setaria faberi, post-emergence, 336 h, postemergence, 500 g ai/ha, scale 0 to 100, 0 is no effect, 100 is complete control, read-out: Foxtail, Giant plant response rating",70%
same,"Plant response rating (0 to 100 scale), Pigweed",pigweed,100
same,pest or weed control at 125 g/ha,"pigweed; Amaranthus retroflexus, post-emergence, 336 h, visual rating, scale 0 (no effect) to 100 (complete control), read-out: Pigweed plant response rating",40%
same,"Plant response rating (0 to 100 scale), Barnyardgrass",barnyardgrass [3]; [4],90
same,pest or weed control at 125 g/ha,"barnyardgrass [3]; Echinochloa crus-galli, post-emergence, 125 g ai/ha, visual rating, scale 0 (no effect) to 100 (complete control), read-out: Barnyardgrass plant response rating",0%
same,pest or weed control at 500 g/ha,"barnyardgrass [3]; Echinochloa crus-galli, post-emergence, postemergence, 500 g ai/ha, scale 0 to 100, 0 is no effect, 100 is complete control, read-out: Barnyardgrass plant response rating",10%
same,"Plant response rating (0 to 100 scale), Morningglory",morningglory,50
same,pest or weed control at 125 g/ha,"morningglory; Ipomoea, post-emergence, 336 h, visual rating, scale 0 (no effect) to 100 (complete control), read-out: Morningglory plant response rating",80%
CCc1nn(C(C)(C)C)nc1C(=O)Nc1cccc(C(=O)N2CC=CC2)c1 [Compound 366],"Plant response rating (0 to 100 scale), Crabgrass, Large",large crabgrass; [4],40
same,"Crabgrass, Large plant response rating",large crabgrass; [5],10
same,"Crabgrass, Large plant response rating",large crabgrass; [6],20
same,Rice plant response rating,rice,70
same,"Sedge, Umbrella plant response rating",[1],90
same,Ducksalad plant response rating,ducksalad,100
same,"Plant response rating (0 to 100 scale), Cocklebur",cocklebur; [4],0
same,Cocklebur plant response rating,cocklebur; [5],30
same,Cocklebur plant response rating,cocklebur; [6],50
same,Blackgrass plant response rating,blackgrass; [5],40
same,Blackgrass plant response rating,blackgrass; [6],50
same,"Plant response rating (0 to 100 scale), Surinam Grass",Surinam grass,30
same,Surinam Grass plant response rating,Surinam grass; [7],10
same,"Plant response rating (0 to 100 scale), Corn",corn; [4],40
same,Corn plant response rating,corn; [5],10
same,Corn plant response rating,corn; [6],20
same,Lambsquarters plant response rating,lambsquarters; [7],80
same,Barnyardgrass plant response rating,barnyardgrass [2],80
same,Wheat plant response rating,wheat; [5],20
same,Wheat plant response rating,"wheat; 500 g ai/ha, scale 0 to 100, 0 no effect, 100 complete control, preemergence",90
same,"Plant response rating (0 to 100 scale), Velvetleaf",velvetleaf,0
same,Velvetleaf plant response rating,velvetleaf; [7],10
same,"Oat, Wild plant response rating",wild oat; postemergence,40
same,"Plant response rating (0 to 100 scale), Foxtail, Giant",giant foxtail; [4],50
same,"Foxtail, Giant plant response rating",giant foxtail; [5],20
same,"Foxtail, Giant plant response rating",giant foxtail; [6],40
same,"Plant response rating (0 to 100 scale), Pigweed",pigweed,70
same,Pigweed plant response rating,pigweed; [7],50
same,"Plant response rating (0 to 100 scale), Barnyardgrass",barnyardgrass [3]; [4],70
same,Barnyardgrass plant response rating,barnyardgrass [3]; [5],10
same,Barnyardgrass plant response rating,barnyardgrass [3]; [6],10
same,"Plant response rating (0 to 100 scale), Morningglory",morningglory,30
